Assay results: patent US9192552B2, “Personal care compositions with improved solubility of a solid UV active” (priority 2011, dated 2015)
Like-named read-outs stand apart in the source and are kept apart here.

What was measured:
[1] = Solvency test: solubility of bis-ethylhexyloxyphenol methoxyphenyl triazine (bemotrizinol) in solvent, visible crystals after storage
Procedure: (§1) In the testing provided below, “soluble” (or “solubilize”), in relation to the solubility of a solid solute being tested, means that no visible crystals may be seen after a prescribed storage period at a storage condition. The storage period can vary. Suitable storage periods include about 24 hours, about 1 week, and about 30 days. Suitable storage conditions include ambient conditions or cold storage at 5° C. (approximately 1 atm). In certain embodiments, solubility may be determined after a 24 hour storage period at ambient conditions. In other embodiments, solubility may be determined after 20 days in cold storage. Other testing parameters may include storage for prolonged time periods (e.g., 30 day, 50 days, 60 days, 90 days) and at variable temperatures (e.g., 5° C., 50° C.).
The solvency of an isosorbide diester within the scope of the present invention was tested against two conventional, industry standard solvents. […] Solubility was also evaluated for samples stored for 7 day at 5° C. followed by equilibration to ambient conditions.

[2] = Solvency test: solubility of butyl methoxydibenzoylmethane (avobenzone) in solvent, visible crystals after storage
Procedure: as §1
The solvency of an isosorbide diester within the scope of the present invention was tested against two conventional, industry standard solvents. […] Various ratios of the solute:solvent were prepared by mixing solvents and the solid sunscreen (solute) and heating to 70° C. Upon reaching 70° C., the examples may be mixed for about 10 minutes. The mixtures are placed in a covered vial and cooled to the storage temperature. Solubility was evaluated for samples stored 24 hours after mixing at room temperature. […]

[3] = solute bemotrizinol (Tinosorb S), 24 hour rest at Ambient Conditions
[4] = solute bemotrizinol (Tinosorb S), 30 day storage at 5° C.
[5] = solute avobenzone (PARSOL 1789), 24 hour rest at Ambient Conditions

Row | Solubility at Solute:Solvent Ratio 1:4 [1] | Solubility at Solute:Solvent Ratio 1:6 [1] | Solubility at Solute:Solvent Ratio 1:8 [1] | Solubility at Solute:Solvent Ratio 1:2 [2] | Solubility at Solute:Solvent Ratio 1:3 [2] | Solubility at Solute:Solvent Ratio 1:4 [2] | Structure (SMILES) | Solubility at Solute:Solvent Ratio 1:3 [1, 3] | Solubility at Solute:Solvent Ratio 1:4 [1, 3] | Solubility at Solute:Solvent Ratio 1:6 [1, 3] | Solubility at Solute:Solvent Ratio 1:8 [1, 3] | Solubility at Solute:Solvent Ratio 1:3 [1, 4] | Solubility at Solute:Solvent Ratio 1:6 [1, 4] | Solubility at Solute:Solvent Ratio 1:8 [1, 4] | Solubility at Solute:Solvent Ratio 14 [1, 4] | Solvency compared with the industry leading solvents ([1]; solute bemotrizinol, versus isopropyl lauroyl sarcosinate and C12-15 alkyl benzoate) | Solubility at Solute:Solvent Ratio 1:3 [2, 5] | Solubility at Solute:Solvent Ratio 1:4 [2, 5] | Solubility at Solute:Solvent Ratio 1:4 ([2]; solute avobenzone (PARSOL 1789), 30 day storage at 5° C.) | Solvency compared with the industry leading solvents ([2]; solute avobenzone, versus isopropyl lauroyl sarcosinate and C12-15 alkyl benzoate)
1 | S | S | S | S | S | S | CCCCCCCCCCCC(=O)N(C)CC(=O)OC(C)C [Isopropyl lauroyl sarcosinate, isopropyl lauroyl sarcosinate, reference compound] |  |  |  |  |  |  |  |  |  |  |  |  | 
2 |  |  |  |  |  |  | CCCCCCCC(=O)OC1COC2C(OC(=O)CCCCCCC)COC12 (stereo not shown) [Isosorbide dicaprylate, isosorbide dicaprylate] | S | S | S | S | S | S | S | S | superior to the industry leading solvents | S | S | S | equivalent to the industry leading solvents
